We go through one cell line from the supplement of paper PMC10307832.

Assay in all cases: relative viability (nuclei count vs DMSO), 5 days (fraction); higher = more cells survive
Compound in the experiment “RO-3306 + Bortezomib”: C1=CC2=C(C=CC(=C2)C=C3C(=O)NC(=NCC4=CC=CS4)S3)N=C1 [RO-3306] + CC(C)C[C@H](NC(=O)[C@H](Cc1ccccc1)NC(=O)c1cnccn1)B(O)O [Bortezomib] (partner 0.002 µM)
The method in brief: (§1)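 Lung cancer cell lines were seeded in 1536-well plates and dosed by pin tool the next day, with either a single drug or a fixed anchor-drug dose combined with five library-drug doses (not always all listed) spaced in √10 steps. Five days later, one step fixed the cells and stained their nuclei (final 0.05% Triton X-100, 1% formaldehyde, 1 ug/ml Hoechst), and nuclei were counted on 4× images. Relative viability is the nuclei count in treated wells divided by the count in vehicle wells, and each value is the median of duplicate plates.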

Compound in the experiment “RO-3306 + OSI-027”: C1=CC2=C(C=CC(=C2)C=C3C(=O)NC(=NCC4=CC=CS4)S3)N=C1 [RO-3306] + COc1cccc2cc(-c3nc([C@H]4CC[C@H](C(=O)O)CC4)n4ncnc(N)c34)[nH]c12 [OSI-027] (partner 0.5 µM)
Put shortly:
as §1

Compound in experiment [1]: O=S(=O)(c1ccccc1)N(CC(F)(F)F)c1ccc(C(O)(C(F)(F)F)C(F)(F)F)cc1 + CS(=O)(=O)N1CCN(Cc2cc3nc(-c4cccc5[nH]ncc45)nc(N4CCOCC4)c3s2)CC1 [Pictilisib] (partner 1 µM)
Put shortly: as §1

Compound in the experiment “RO-3306 + Navitoclax”: C1=CC2=C(C=CC(=C2)C=C3C(=O)NC(=NCC4=CC=CS4)S3)N=C1 [RO-3306] + CC1(C)CCC(c2ccc(Cl)cc2)=C(CN2CCN(c3ccc(C(=O)NS(=O)(=O)c4ccc(N[C@H](CCN5CCOCC5)CSc5ccccc5)c(S(=O)(=O)C(F)(F)F)c4)cc3)CC2)C1 [Navitoclax] (partner 0.5 µM)
Put shortly: as §1

As for NCI-H2405, the relative viability was found to be 1.07 with RO-3306 + Bortezomib (first compound 0.01 µM); 0.963 with RO-3306 + Bortezomib (first compound 0.03162 µM); 0.982 with RO-3306 + Bortezomib (first compound 0.1 µM); 0.959 with RO-3306 + Bortezomib (first compound 0.3162 µM); 1.03 with RO-3306 + Bortezomib (first compound 1 µM); 0.609 in the experiment with RO-3306 + OSI-027 (first compound 0.01 µM). Moreover, the relative viability in the experiment with RO-3306 + OSI-027 (first compound 0.03162 µM) is 0.591; in the experiment with RO-3306 + OSI-027 (first compound 0.1 µM) it was 0.629; with RO-3306 + OSI-027 (first compound 0.3162 µM), 0.614; with RO-3306 + OSI-027 (first compound 1 µM), 0.626; in experiment [1] (first compound 0.8 µM) it was 0.471; in experiment [1] (first compound 2.53 µM), 0.455. Moreover, the relative viability in experiment [1] (first compound 8 µM) was 0.418; with RO-3306 + Navitoclax (first compound 0.01 µM) it was 0.91; with RO-3306 + Navitoclax (first compound 0.03162 µM), 0.735; with RO-3306 + Navitoclax (first compound 0.1 µM), 0.934; with RO-3306 + Navitoclax (first compound 0.3162 µM) it was 0.949; with RO-3306 + Navitoclax (first compound 1 µM) it was 0.834.
